Assay results published in paper PMC3722775, “1-Aryl-3-[4-(thieno[3,2-d]pyrimidin-4-yloxy)phenyl]ureas as VEGFR-2 Tyrosine Kinase Inhibitors: Synthesis, Biological Evaluation, and Molecular Modelling Studies” (BioMed Research International, 2013).

How the values were obtained:
[1] = target: T1, VEGFR-2 (Homo sapiens, UniProt P35968); test: VEGFR-2 enzymatic inhibition assay (Z'-LYTE-Tyr1 Peptide FRET kit); assay type: biochemical; conditions: enzymatic FRET-based assay, 10 μM ATP; four separate determinations
T1 construct: purchased Invitrogen
Description: The compounds were assessed for VEGFR-2 inhibition activity using the Z′-LYTE-Tyr1 Peptide assay kit (according to the procedures recommended by the manufacturer Invitrogen, Cat. PV3190) [14]. Briefly, assays were performed in a total of 20 μL in 384-well plates using fluorescence resonance energy transfer technology. A Tyr1 substrate (coumarin-fluorescein double-labeled peptide) at 1.0 μM was incubated for 1 h with 4 μg/mL VEGFR-2, 10 μM ATP, and inhibitors at room temperature in 50 mM Hepes/Na (pH 7.5), 10 mM MgCl2, 2.0 mM MnCl2, 2.5 mM DTT, 0.10 mM orthovanadate, and 0.01% bovine serum albumin. […] After a second incubation of 1 hour, a stop reagent was added to each well.

[2] = test system: HUVECs; test: MTS toxicity (cell viability) assay in HUVECs; assay type: cell-based, human; conditions: 24 h, control 2.33 ± 0.06 O.D., mean ± SEM
Description: (§1) Human umbilical vein endothelial cells (HUVECs) were obtained from the ScienceCell Research Labs (San Diego, CA, USA), HUVECs were seeded on plates coated with 0.2% gelatin (Sigma-Aldrich, Sintra, Portugal) and cultured in M199 medium (Sigma-Aldrich, Sintra, Portugal) supplemented with 20% fetal bovine serum (FBS) (Invitrogen Life Technologies, Scotland, UK), 1% penicillin/streptomycin (Invitrogen Life Technologies), 0.01% heparin (Sigma-Aldrich), and […] endothelial cell growth supplement (Biomedical Technologies Inc., MA, USA) and maintained at 37°C in a humidified 5% carbon dioxide atmosphere. Cells were kept between passages 3 and 8 for every experiment. The test compounds were dissolved in DMSO and added to cell cultures at a concentration of 0.1–10 μM. Incubations were performed for 24 h in medium supplemented with 2% FBS, 1% penicillin/streptomycin, and 60 ng/mL of the vascular endothelial growth factor (Sigma-Aldrich, Sintra, Portugal). Control cells were incubated with vehicle (DMSO at 0.1% in every culture).
HUVECs (2 × 10^5 cells/mL) were allowed to grow for 24 h and then incubated with the test compounds at a range concentration between 0.1 and 10 μM or control (0.1% DMSO) for 24 h. After the incubation period, cells were washed and their viability was assessed using Cell Titer 96 Aqueous ONE Solution Reagent MTS [3-(4,5-dimethylthiazol-2-yl)-5-(3-carboxymethoxyphenyl)-2-(4-sulfophenyl)-2H-tetrazolium] colorimetric assay (Promega, Madison, USA), according to the instructions provided by the manufacturer and as previously described. Optical density was measured at 492 nm. Three independent experiments were performed, and the results were expressed as mean ± SEM.

[3] = test system: HUVECs; test: TUNEL cell apoptosis assay in HUVECs; assay type: cell-based, human; conditions: 24 h; for Effect on apoptosis (TUNEL): 0.1, 0.5 and 1 μM, statistical significance only for 2a at the highest concentration
Description: as §1
HUVECs (6 × 10^4 cells/mL) were grown for 24 h on glass coverslips and incubated with different concentrations (0.1–1 μM) of the tested compounds. TUNEL assay was performed using the In Situ Cell Death Detection kit (Roche Diagnostics, Mannheim, Germany), according to the manufacturer's instruction and as previously reported. Immunofluorescence was visualized under a fluorescence microscope (Olympus, BH-2, UK). The percentage of stained cells was evaluated by counting the cells stained with TUNEL (apoptotic cells) divided by the total number of nuclei counterstained with DAPI (Invitrogen, CA, USA) at a 200x magnification field. One thousand nuclei were evaluated. Results were expressed as percentage of control (100%).

[4] = test system: phosphorylated (activated) VEGFR-2; test: Western blotting of phosphorylated (active) and total VEGFR-2 in HUVECs; assay type: cell-based, human; conditions: 1 μM, normalized with total VEGFR-2
Description: as §1
Proteins were isolated from HUVEC lysates using RIPA (Chemicon International, CA, USA). Proteins were quantified using a spectrophotometer (Jenway, 6405 UV/vis, Essex, UK), and 20 μg of protein were subjected to 8% SDS-PAGE with a 5% stacking gel. After electrophoresis, proteins were blotted into a Hybond nitrocellulose membrane (Amersham, Arlington, VA, USA). Immunodetection for total VEGFR-2 (1 : 1000; Cell Signaling, MA, USA), phosphorylated (activated) VEGFR-2 (1 : 750; Santa Cruz Biotechnology, CA, USA), and β-actin (1 : 3000; Abcam, Cambridge, UK) was accomplished with enhanced chemiluminescence (ECL kit, Amersham, Arlington, USA). […] The relative intensity of each protein blotting analysis was measured using a computerized software program (Bio-Rad, CA, USA), and the expression of activated and total VEGFR-2 were normalized with total VEGFR-2 and β-actin bands, respectively, to compare the expression of proteins in different treatment groups.

T1 sequence (P35968 834-1162 limits assumed): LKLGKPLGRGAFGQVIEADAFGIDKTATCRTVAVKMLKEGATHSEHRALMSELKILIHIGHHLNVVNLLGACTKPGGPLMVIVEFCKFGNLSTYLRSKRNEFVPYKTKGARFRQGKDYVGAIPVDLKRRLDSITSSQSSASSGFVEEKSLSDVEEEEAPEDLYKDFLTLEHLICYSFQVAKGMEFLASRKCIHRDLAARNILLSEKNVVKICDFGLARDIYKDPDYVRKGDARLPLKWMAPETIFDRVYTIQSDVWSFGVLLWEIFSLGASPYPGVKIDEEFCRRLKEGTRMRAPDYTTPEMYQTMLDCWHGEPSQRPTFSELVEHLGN

| Compound | IC50 [1] [nM] | Viability of HUVEC (MTS optical density) ([2]; 5.0 μM) [O.D.] | Viability of HUVEC (MTS optical density) ([2]; 10 μM) [O.D.] | Effect on apoptosis (TUNEL) [3] | Formation of the active (phosphorylated) form of VEGFR-2 [4] | melting point [°C] | Increase in apoptosis (TUNEL) comparing with untreated cells ([3]; highest concentration tested (1 μM)) [%] |
| --- | --- | --- | --- | --- | --- | --- | --- |
| Cc1csc2c(Oc3ccc(NC(=O)Nc4ccc(C#N)cc4)cc3)ncnc12 [Compound 2f, 1-(4-Cyanophenyl)-3-[4-(7-methylthieno[3,2-d]pyrimidin-4-yloxy)phenyl]urea] | > 100000 |  |  |  |  |  |  |
| COc1ccc(NC(=O)Nc2ccc(Oc3ncnc4ccsc34)cc2)cc1 [Compound 2b, 1-(4-Methoxyphenyl)-3-[4-(thieno[3,2-d]pyrimidin-4-yloxy)phenyl]urea] | 188 | 1.84 ± 0.05 | 1.82 ± 0.04 | increase in apoptosis | significantly decrease |  |  |
| COc1ccc(NC(=O)Nc2ccc(Oc3ncnc4c(C)csc34)cc2)cc1 [Compound 2e, 1-(4-Methoxyphenyl)-3-[4-(7-methylthieno[3,2-d]pyrimidin-4-yloxy)phenyl]urea] | > 100000 |  |  |  |  | 248.4 to 249.6 |  |
| N#Cc1ccc(NC(=O)Nc2ccc(Oc3ncnc4ccsc34)cc2)cc1 [Compound 2c, 1-(4-Cyanophenyl)-3-[4-(thieno[3,2-d]pyrimidin-4-yloxy)phenyl]urea] | 150 |  | 1.96 ± 0.02 | increase in apoptosis | did not significantly inhibit |  |  |
| Cc1csc2c(Oc3ccc(NC(=O)Nc4ccccc4)cc3)ncnc12 [Compound 2d, 1-Phenyl-3-[4-(7-Methylthieno[3,2-d]pyrimidin-4-yloxy)phenyl]urea] | > 100000 |  |  |  |  | 285.7 to 287.3 |  |
| O=C(Nc1ccccc1)Nc1ccc(Oc2ncnc3ccsc23)cc1 [Compound 2a, 1-Phenyl-3-[4-(thieno[3,2-d]pyrimidin-4-yloxy)phenyl]urea] | 199 | 2.00 ± 0.06 | 1.99 ± 0.03 | increase in apoptosis | significantly decrease |  | 32.8 ± 1.23 |
